The text below walks through data of PMC9721426, “Novel piperine-carboximidamide hybrids: design, synthesis, and antiproliferative activity via a multi-targeted inhibitory pathway” (Journal of Enzyme Inhibition and Medicinal Chemistry, 2022).

By GI50 is commonly meant the concentration that inhibits growth by half. Read a high GI50 as less potent growth inhibition. The term IC50 denotes the concentration that gives 50% inhibition.

Experiment [1] relates to four human cancer cell lines (Panc-1, MCF-7, HT-29, A-549). In words: Antiproliferative MTT assay, average (GI50) over the four cancer cell lines. It counts as cell-based. As to conditions: Homo sapiens; average of IC50 versus A-549, MCF-7, Panc-1, HT-29. The procedure:
The average (GI50) versus the four cancer cell lines was chosen for ease of manipulation.
(§1) The MTT assay was performed using various cell lines in accordance with previously reported procedures[28]^,[29] to investigate the antiproliferative potential of VIa-k. Refer to Appendix A. […]
(§2) added (in 200 μL medium to yield a final concentration of 0.1% v/v) to the wells of plates. A single compound was designated with four wells followed by incubation of […]
(§3) After incubation, medium was removed completely from the plates followed by addition of MTT (0.4 mg/mL in medium) to each well and subsequent incubation of plates for 3h. MTT (along with the medium) was removed and DMSO (150μL) was added to each well of the culture plates, followed by vortexing and subsequent measurement of absorbance (at 540 nm) using microplate reader. The data are shown as percentage inhibition of proliferation in comparison with controls containing 4.2.1.2. Assay for antiproliferative effect […]
(§4) The percentage cytotoxicity of compounds was calculated using the following […]
(§5) Where ATC= Absorbance of treated cells and AC= Absorbance of control. […]
(§6) used as positive control in the assay. […]
(Tetrazolium dyes change colour on reduction, which living cells bring about.)

Experiment [2] concerns MCF-7 (breast cancer cell line). Kind of experiment: Antiproliferative MTT assay, MCF-7. It counts as cell-based. As to conditions: Homo sapiens, MCF7; MCF-7, MTT; read-out: Antiproliferative activity IC50 ± SEM, MCF-7. The procedure:
as §1, §2, §3, §4, §5, §6

Experiment [3] has as its target T1, EGFR (Homo sapiens, UniProt P00533).
T1 construct: cytoplasmic domain (EGFR -CD, amino acids 645–1186); His6 (N); made in house; host or cells: Sf-9 insect cells (baculovirus, pBlueBacHis2B / pFASTBacHTc)
Kind of experiment: EGFR-TK inhibitory assay. It counts as biochemical. Conditions: EGFR-TK assay; read-out: EGFR inhibition IC50 ± SEM. The method, then:
4.2.1.3. EGFR inhibitory assay
EGFR-TK assay was performed to evaluate the inhibitory potency of the tested compounds against EGFR30. Baculoviral expression vectors including pBlueBacHis2B […]
sequence comprised a sequence that encoded (His) 6. Sf-9 cells were infected for 72h for protein expression. The pellets of Sf-9 cells were solubilized in a buffer containing sodium vanadate (100 µM), aprotinin (10 µg/mL), triton (1%), HEPES buffer (50mM), ammonium molybdate (10 µM), benzamidine HCl (16 µg/mL), NaCl (10 mM), leupeptin (10 µg/mL) and pepstatin (10 µg/mL) at 0°C for 20 min at pH 7.4, followed by centrifugation for 20 min. To eliminate the non-specifically bound material, a Ni-NTA super flow packed column was used to pass through and wash the crude extract supernatant first with 10 mM and then with 100 mM imidazole. […]
NaCl (50 mM), HEPES (20 mM), glycerol (10%) and 1 µg/mL each of aprotinin, leupeptin and pepstatin for 120 min. The purification was performed either at 4 °C or on ice. To record autophosphorylation level, EGFR kinase assay was carried out on the basis of DELFIA/Time-Resolved Fluorometry. The compounds were first dissolved in DMSO […]
pH 7.4. Each compound (10 µL) was incubated with recombinant enzyme (10 µL, 5 ng for EGFR, 1:80 dilution in 100 mM HEPES) for 10 min at 25 °C, subsequent to the addition of 5X buffer (10 µL, containing 2 mM MnCl2, 100 µM Na3VO4, 20 mM HEPES and 1 mM DTT) and ATP-MgCl2 (20 µL, containing 0.1 mM ATP and 50 mM MgCl 2) and incubation for 1h. The negative and positive controls were included in each plate by the incuba tion of enzyme either with or without ATP -MgCl2. The liquid was removed after incubation and the plates were washed thrice using wash buffer. Europium -tagged antiphosphotyrosine antibody (75 µL, 400 ng) was added to each well followed by incubation of 1h a nd then washing of the plates using buffer. The enhancement solution was added to each well and the signal was recorded at excitation and emission […]
The autophosphorylation percentage inhibition by compounds was calculated using the following equation: […]
Using the curves of percentage inhibition of eight concentrations of each compound, IC 50

Experiment [4] deals with Human CDK2/A2 (Homo sapiens, UniProt P24941). Kind of experiment: CDK2 inhibitory assay.
Procedure: Protein Kinase Assays. Human CDK2/A2 was purchased from New England Biolabs IC50 values for CDK2/A were determined according to the supplier’s instructions
The target in experiment [5] is T2, BRAF^V600E (Mus musculus, UniProt P28028, V585E).
T2 construct: Mouse full-length GST-tagged BRAFV600E; GST; purchased Invitrogen PV3849
Kind of experiment: BRAF V600E kinase assay. It counts as biochemical. As to conditions: read-out: BRAF^V600E inhibition IC50 ± SEM. The method, then: An in vitro study was conducted to evaluate the anti-BRAF^V600E of VIc, VIf, VIg, VIi, and VIk[31]. […] An in vitro study[31] was conducted to evaluate the anti-BRAF^V600E of VIc, VIf, VIg, VIi, and Vik. See Appendix A.
4.2.1.4. BRAF kinase assay
V600E mutant BRAF kinase assay was performed to investigate the activity of the most […]
Mouse full-length GST-tagged BRAFV600E (7.5 ng, Invitrogen, PV3849) was pre-incubated with drug (1 µL) and assay dilution buffer (4 µL) for 60 min at 25 °C. In assay dilution buffer, a solution (5 µL) containing MgCl 2 (30 mM), ATP (200 µM), recombinant human full length (200 ng) […] N-terminal His-tagged MEK1 (Invitrogen) was added to start the assay, subsequent to incubation for 25 min at 25 °C. The assay was stopped using 5X protein denaturing buffer (LDS) solution (5 µL).
To further denature the protein, heat (70° C) was applied for 5 min.
NuPage gel plates (Invitrogen) were used to carry out electrophoresis (at 200 V). 10 µL of each reaction was loaded into the precast plates and electrophoresis was allowed to proceed. After completion of electrophoresis, the front part of the precast gel plate (holding hot ATP) was cut and afterw ards cast-off. The dried gel was developed using a […]
that containing no inhibitor served as positive control. […]

Experiment [6] concerns A-549 (epithelial cancer cell line). Kind of experiment: Antiproliferative MTT assay, A-549. It counts as cell-based. Conditions: Homo sapiens, A549; A-549, MTT; read-out: Antiproliferative activity IC50 ± SEM, A-549. The method, then:
as §1, §2, §3, §4, §5, §6

The test system of experiment [7] is Panc-1 (pancreatic cancer cell line). In words: Antiproliferative MTT assay, Panc-1. As to conditions: Homo sapiens; Panc-1, MTT; read-out: Antiproliferative activity IC50 ± SEM, Panc-1. It counts as cell-based. The method, then: as §1, §2, §3, §4, §5, §6
Experiment [8] deals with HT-29 (colon cancer cell line). Kind of experiment: Antiproliferative MTT assay, HT-29. It counts as cell-based. As to conditions: Homo sapiens; HT-29, MTT; read-out: Antiproliferative activity IC50 ± SEM, HT-29. The method, then:
as §1, §2, §3, §4, §5, §6

T1 sequence (P00533 669-1210): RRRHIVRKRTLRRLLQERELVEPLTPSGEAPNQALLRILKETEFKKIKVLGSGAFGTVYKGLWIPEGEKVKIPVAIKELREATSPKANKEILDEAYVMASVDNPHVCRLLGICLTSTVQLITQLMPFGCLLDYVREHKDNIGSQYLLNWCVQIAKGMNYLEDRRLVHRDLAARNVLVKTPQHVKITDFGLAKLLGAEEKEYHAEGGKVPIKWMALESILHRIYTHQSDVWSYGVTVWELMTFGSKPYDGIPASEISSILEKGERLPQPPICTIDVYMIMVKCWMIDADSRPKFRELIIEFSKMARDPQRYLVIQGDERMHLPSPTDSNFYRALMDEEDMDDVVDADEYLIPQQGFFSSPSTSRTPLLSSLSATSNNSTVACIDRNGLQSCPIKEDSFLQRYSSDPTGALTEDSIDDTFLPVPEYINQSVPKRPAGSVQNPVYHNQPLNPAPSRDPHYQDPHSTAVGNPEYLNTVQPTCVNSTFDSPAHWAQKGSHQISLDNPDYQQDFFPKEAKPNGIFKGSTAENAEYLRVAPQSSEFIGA
T2 sequence (P28028 whole entry V585E): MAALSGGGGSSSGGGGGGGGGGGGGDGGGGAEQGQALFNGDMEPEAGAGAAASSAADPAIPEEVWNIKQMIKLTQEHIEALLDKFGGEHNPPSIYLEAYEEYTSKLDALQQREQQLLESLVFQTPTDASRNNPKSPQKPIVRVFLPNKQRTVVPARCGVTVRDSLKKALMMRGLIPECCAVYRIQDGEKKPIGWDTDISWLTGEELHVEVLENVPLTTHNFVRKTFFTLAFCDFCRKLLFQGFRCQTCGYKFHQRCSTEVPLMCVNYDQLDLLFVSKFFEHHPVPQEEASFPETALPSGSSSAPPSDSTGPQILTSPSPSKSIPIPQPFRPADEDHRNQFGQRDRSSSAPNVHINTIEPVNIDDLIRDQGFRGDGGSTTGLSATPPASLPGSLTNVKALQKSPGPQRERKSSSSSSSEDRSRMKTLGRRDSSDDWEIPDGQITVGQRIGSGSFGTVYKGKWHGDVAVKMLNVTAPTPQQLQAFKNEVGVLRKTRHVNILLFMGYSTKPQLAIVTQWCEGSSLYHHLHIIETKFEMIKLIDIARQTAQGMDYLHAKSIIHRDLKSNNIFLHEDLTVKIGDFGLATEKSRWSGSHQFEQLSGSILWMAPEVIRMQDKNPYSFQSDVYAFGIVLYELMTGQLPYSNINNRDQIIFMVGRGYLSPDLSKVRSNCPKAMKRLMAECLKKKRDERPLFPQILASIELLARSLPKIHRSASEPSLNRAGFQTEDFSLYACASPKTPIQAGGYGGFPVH

For the molecule `NC(=NOC(=O)/C=C/C=C/c1ccc2c(c1)OCO2)c1ccc(Br)cc1` [VIc, N'-{[(2E,4E)-5-(2H-1,3-Benzodioxol-5-yl)penta-2,4-dienoyl]oxy}-4-bromobenzene-1-carboximidamide], in experiment [1], the GI50 was found to be 50 nM. The IC50 worked out at 47 ± 5 nM in experiment [2]; 112 ± 8 nM in experiment [3]; 23 ± 2 nM in experiment [4]; 57 ± 6 nM in experiment [5]; 45 ± 5 nM in experiment [6]; 53 ± 5 nM in experiment [7]. The IC50 in experiment [8] turned out to be 55 ± 5 nM.
Take `NC(=NOC(=O)/C=C/C=C/c1ccc2c(c1)OCO2)c1ccccc1Cl` [VIf, N'-{[(2E,4E)-5-(2H-1,3-benzodioxol-5-yl)penta-2,4-dienoyl]oxy}-2-chlorobenzene-1-carboximidamide]: in experiment [1], the GI50 was found to be 44 nM. The IC50 in experiment [2] was 43 ± 4 nM; in experiment [3], 105 ± 7 nM; in experiment [4], 21 ± 2 nM; in experiment [5], 49 ± 5 nM; in experiment [6], 41 ± 4 nM; in experiment [7], 45 ± 4 nM. For the same molecule, in experiment [8], the IC50 is 47 ± 4 nM.
With `N/C(=N/OC(=O)/C=C/C=C/c1ccc2c(c1)OCO2)c1ccc2c(c1)OCO2` [VIk], the concentration for 50% growth inhibition (GI50) in experiment [1] stood at 35 nM. The IC50 in experiment [2] is 35 ± 3 nM; in experiment [3] it was 127 ± 10 nM; in experiment [4] it was 12 ± 2 nM; in experiment [5] it was 40 ± 4 nM; in experiment [6] it was 32 ± 3 nM; in experiment [7], 36 ± 3 nM. Besides, in experiment [8], the half-inhibitory concentration (IC50) is 38 ± 3 nM. Moreover, the “CDK2 potency relative to the reference dinaciclib (more potent)” value in experiment [4] (ratio of IC50 values) stood at 1.5 fold.
